# According to US10604782B2, “High-throughput fluorescent screening assay for inhibitors of gram-negative bacterial iron uptake” (Kansas State University Research Foundation, priority 2015, dated 2020):
# Read-outs that look alike come from different tables or passages of the source.
# How the values were obtained:
# [1] = system: FeEnt utilization by E. coli OKN3 + pITS23 (FepA); experiment: Siderophore nutrition test, FeEnt; format: cell-based, Escherichia coli; details: for growth halo phenotype in siderophore nutrition test, in words: 100 μM compound (FIG. 6A)
# [2] = system: killing of E. coli MG1655 by colicin B (FepA, TonB-dependent); format: cell-based, Escherichia coli
# [3] = system: A. baumannii 17978; experiment: Minimal inhibitory concentration assay in LB, A. baumannii; format: cell-based, Acinetobacter baumannii
# [4] = system: FeEnt utilization by A. baumannii; experiment: FeEnt siderophore nutrition test in A. baumannii; format: cell-based, Acinetobacter baumannii
# [5] = system: Fc utilization by E. coli OKN3 + pITS23 (transported by FhuA); experiment: Siderophore nutrition test, Fc; format: cell-based, Escherichia coli
# [6] = system: E. coli MG1655; experiment: Minimal inhibitory concentration assay in LB; format: cell-based, Escherichia coli; details: two-fold dilutions up to […]
# [7] = system: TonB-dependent FeEnt uptake through FepA (E. coli OKN3/pITS23FepAS271C-FM); experiment: microbe, parasite or virus in culture; format: cell-based, Escherichia coli; details: for IC50: read-out: 50% Inhibition, Concentration (IC50)
# [8] = system: TonB; format: cell-based, Escherichia coli
# [9] = system: TonB-dependent FeEnt uptake through FepAS271C-FM; format: cell-based, Escherichia coli
# [10] = E. coli OKN3 + pITS23, 50 μM FeEnt, 100 μM compound in DMSO, untreated 1.45 ± 0.123
# [11] = percent killing of MG1655 by ColB in the presence of sub-toxic concentration of compound in DMSO, untreated 98.34 ± 2.38
# [12] = Acinetobacter baumannii, 17978, read-out: MIC
# [13] = A. baumannii, 50 μM FeEnt, 100 μM compound in DMSO, untreated 1.16 ± 0.065
# [14] = E. coli OKN3 + pITS23, 50 μM Fc, 100 μM compound in DMSO, untreated 1.54 ± 0.105
# [15] = Escherichia coli, MG1655, E. coli MG1655 in LB, dash = MIC >[…], read-out: MIC
# [16] = halo increase >5% or no halo, killing prevented by >5%
# [17] = Escherichia coli, […], cells pre-incubated 30 minutes at 37° C. with inhibitor
# [18] = […], cells pre-incubated 30 minutes at 37° C. with inhibitor
Compound,"FeEnt Halo [1, 10] [cm]","% Colicin B killing [2, 11] [%]","MIC [3, 12] [µM]","FeEnt Halo [4, 13] [cm]","Fc Halo [5, 14] [cm]","MIC [6, 15] [µM]",further results
COc1cccc(O)c1O [3-Methoxycatechol],1.50 ± 0.100,98.2 ± 2.27,> 512,1.12 ± 0.025,1.60 ± 0.500,> 512,
"[N-]=[N+]=[N-] [Azide, azide]",,,,,,,"100% Inhibition, Concentration (IC100) [7]: 18 mM; IC50 [7]: 9 mM"
O=c1cc(-c2ccccc2)oc2cc(O)c(O)c(O)c12 [Baicalein],1.65 ± 0.050,54.6 ± 13.2,> 512,1.23 ± 0.098,1.65 ± 0.045,> 512,"growth halo phenotype in siderophore nutrition test, in words [1]: two unique halos; inhibition in the secondary screens (FeEnt utilization, Fc utilization, ColB killing) [8, 16]: inhibition in all three of the three secondary screens"
"N#CC(C#N)=NNc1cccc(Cl)c1 [CCCP, carbonyl cyanide m-chlorophenylhydrazone]",,,,,,,"fluorescence recovery (FeEnt uptake) in words ([9]; 96-well plate, 10 nM FeEnt, CCCP 20 uM, 50 min time course (FIG. 2B)): fully prevented fluorescence recovery; recovered fluorescence in words ([9]; 384-well plate format, increasing concentrations of CCCP (FIG. 3)): dose-responsive decrease in recovered fluorescence; IC50 [7, 17]: 0.005 mM; 100% Inhibition, Concentration (IC100) [7, 18]: 0.01 mM"
CC(=O)[O-].CC(=O)[O-].[Cd+2] [Cadmium acetate],,,,,,,"FeEnt Halo [1]: 2.22 ± 0.076 cm; % Colicin B killing [2]: 98.4 ± 0.43%; MIC ([3]; read-out: MIC): 256 µM; FeEnt Halo [4]: 0 cm; inhibition in the secondary screens (FeEnt utilization, Fc utilization, ColB killing) [8]: inhibitory in two of the three secondary assays; Fc Halo [5]: 2.08 ± 0.42 cm"
C[C@@](Cc1ccc(O)c(O)c1)(NN)C(=O)O [Carbidopa],1.58 ± 0.089,96.0 ± 2.0,> 512,1.10 ± 0.015,1.65 ± 0.055,> 512,
N.N.O=C([O-])C1(C(=O)[O-])CCC1.[Pt+2] [Carboplatin],1.54 ± 0.031,100 ± 0.00,,1.10 ± 0.050,1.62 ± 0.015,,"MIC ([3]; A. baumannii 17978 in LB, two-fold dilutions up to […], dash = MIC >[…]): — (If MIC >512 μM, value not listed); MIC ([6]; E. coli MG1655 in LB, dash = MIC >[…]): — (If MIC >512 μM, value not listed)"
"O=[N+]([O-])c1ccc(O)c([N+](=O)[O-])c1 [DNP, 2,4-dinitrophenol]",,,,,,,"IC50 [7, 17]: 0.75 mM; effect on FeEnt binding and transport in words ([7]; FeEnt plus energy poison added to cells (FIG. 1A)): did not affect binding but prevented transport; 100% Inhibition, Concentration (IC100) [7, 18]: 1.5 mM"
Cc1cc(N)c2ccccc2[n+]1CCCCCCCCCC[n+]1c(C)cc(N)c2ccccc21 [Dequalinium Chloride],1.43 ± 0.110,98.7 ± 1.10,> 512,1.14 ± 0.017,1.55 ± 0.131,> 512,
O=c1c2ccccc2[se]n1-c1ccccc1 [Ebselen],0,93.4 ± 2.25,32,0,0,,"MIC ([6]; E. coli MG1655 in LB, dash = MIC >[…], read-out: MIC): 128 µM"
O=c1oc2c(O)c(O)cc3c(=O)oc4c(O)c(O)cc1c4c23 [Ellagic acid],1.61 ± 0.075,82.9 ± 3.75,256,1.08 ± 0.041,1.36 ± 0.197,> 512,"growth halo phenotype in siderophore nutrition test, in words [1]: two unique halos; inhibition in the secondary screens (FeEnt utilization, Fc utilization, ColB killing) [8, 16]: inhibitory in two of the three secondary assays"
O=C1C(Cl)=C(Cl)C(=O)C(Cl)=C1Cl [P-Chloranil],1.51 ± 0.148,,,1.14 ± 0.015,1.57 ± 0.059,,"% Colicin B killing [2]: 93.0 ± 3.36%; MIC ([3]; A. baumannii 17978 in LB, two-fold dilutions up to […], […]): — (If MIC >512 μM, value not listed); differential impact on transport of FeEnt, Fc and ColB, in words [8]: inhibited ColB but not FeEnt or Fc transport; MIC ([6]; E. coli MG1655 in LB, […]): — (If MIC >512 μM, value not listed)"
Thimerosal,,,,,,,"FeEnt Halo [1]: 0 cm; % Colicin B killing [2]: 98.6 ± 0.98%; MIC ([3]; read-out: MIC): 1 µM; FeEnt Halo [4]: 0 cm; inhibition in the secondary screens (FeEnt utilization, Fc utilization, ColB killing) [8]: inhibition in all three of the three secondary screens; Fc Halo [5]: 0 cm"
Zinc pyrithione,,,,,,,"FeEnt Halo [1]: 0 cm; % Colicin B killing [2]: 20.4 ± 5.90%; MIC ([3]; read-out: MIC): 16 µM; FeEnt Halo [4]: 0 cm; inhibition in the secondary screens (FeEnt utilization, Fc utilization, ColB killing) [8]: inhibition in all three of the three secondary screens; Fc Halo [5]: 0 cm"
arsenate,,,,,,,"100% Inhibition, Concentration (IC100) [7]: 180 mM; IC50 [7]: 90 mM"
